One data set deals with T1, AcrB (Escherichia coli, UniProt P31224).
T1 construct: made in house; host or cells: E. coli C41(DE3)
Description: Extraction of AcrB from membranes (SDS-PAGE of supernatant). The following applies: for extraction of AcrB: detergent 10 g/l unless indicated otherwise, 2 h at 4° C. Set-up: species or system bacterial; same expression system (E. coli C41DE3). The protocol:
(§1) FIG. 6 depicts the extraction of the membrane proteins BmrA (panels A and C) and AcrB (panels B and D) using commercial detergents and the molecules of the invention (panels A and B, from left to right): SDS, DDM, FC12, TX100, compounds of the invention 1.4, 1.5, 2.3a, 2.3b, 2.3c, 2.3d, 2.3e, 2.3f, 2.3g, 2.3h, 2.3i, 3.7a, 3.7b; panel C: compounds of the invention 3.7c 0.8%, 3.7d 0.16%, 3.7e 0.8%, 3.7f 0.3%, 3.7g 0.4%, 3.7h 0.2%, 3.7i 0.07%, 3.7j 0.09%, 3.7k, 3.7l, 0.25%, 3.9a, 4.5a, 4.5b, 4.5c, 4.5d 0.34%, 4.6a, 4.6b, 4.6c, 4.6d, 5.3a, 5.3b, 5.3c 0.3%, 5.3d 0.3%; panel D: 3.7c, 3.7d, 3.7e, 3.7f, 3.7h, 3.7i 0.1%, 3.7j, 3.7k, 3.7l, 3.9a, 4.5a, 4.5b, 4.5c, 4.5d, 4.6a, 4.6b, 4.6c, 4.6d. The detergents are added at 10 g/l (1%), unless indicated otherwise. The equivalent of 20 μg of proteins of the extracted fraction after centrifugation at 100 000×g for 30 min is deposited on 10% SDS-PAGE, stained with Coomassie blue after migration. BmrA migrates in its monomeric form to the level of the 55 kDa band; AcrB migrates in its monomeric form to the level of the 100 kDa band. SDS=sodium dodecyl sulfate; DDM=β-D-dodecyl maltoside; FC12=foscholine-12; TX100=triton X-100.
(§2) The extraction capacity of the detergents of the series is tested on membranes in which BmrA or AcrB are strongly expressed. The extraction with the clips (molecules of the invention) is compared to that obtained with commercial detergents, used as reference.
(§3) Procedure. BmrA represents 25% of the proteins present in the overexpression system used (E. coli, C41DE3). These membranes are prepared as described previously (Matar-Merheb, R. et al. ([11])). The membranes containing AcrB (approximately 20% of the membrane proteins, same expression system as BmrA) were prepared as described previously (Seeger, M. A. et al. ([21])). The detergents are used at 10 g/l unless indicated otherwise, and the proteins diluted at 2 g/l in a 20 mM Tris-HCl buffer, pH 8.0, 100 mM NaCl, 15% glycerol, with protease inhibitors (Roche) added thereto at an amount of one tablet/100 ml. The mixture (T) is incubated for 2 h at 4° C. then centrifuged for 1 h at 4° C. at 100 000×g in order to separate the extracted fraction (supernatant, S) from that which is not extracted (pellet). The supernatants are deposited on 10% SDS-PAGE and stained with Coomassie blue after migration. The foscholine 12, DDM and LMNG originate from Anatrace, the SDS and Triton X100 originate from Sigma-Aldrich.

Data set [1] can be described thus: Critical micelle concentration (CMC) by DPH fluorescence. The data set is classed as physicochemical. The following applies: 50 mM tris-HCl, pH 8.0. The protocol: FIG. 4 represents the fluorescence (%) of DPH (1,6-diphenyl-1,3,5-hexatriene) in the presence of increasing concentrations (0.0001 mM, 0.001 mM, 0.01 mM, 0.1 mM, 1 mM and 10 mM) of clips (compounds of the invention), exemplified with the compounds #3.7e (C13, points represented by squares) and 3.7f (C18, points represented by circles). The experiment is carried out in triplicates. In accordance with Chattopadhyay, A. & London, E ([22]), the CMC corresponds to the concentration at which the breakage in the slope is observed, here at 20 μM for 3.7f and 2 mM for 3.7e (black symbols).
Procedure. The molecules of the invention were prepared in a range of concentrations extending from 0.1 μM to 10 mM in 50 mM tris-HCl, pH 8.0 and neutralized at this pH. To 80 μl of each solution (triplicate), the same volume of 10 μM of 1,6-diphenyl-1,3,5-hexatriene (DPH, Sigma, D208000) is added, prepared at 100 μM in tetrahydrofuran then diluted 10-fold in H2O. The increase in the fluorescence of the DPH occurs when the latter find micelles of clips into which it can insert itself (Chattopadhyay, A. & London, E. Fluorimetric determination of critical micelle concentration avoiding interference from detergent charge. Anal Biochem 139, 408-412 (1984) ([22])). The fluorescence is read with a Xenius SAFAS fluorimeter by exciting at 358 nm and recording the fluorescence emission at 430 nm, with slits of 9 to 10 nm for the excitation and the emission and a gain of 100 to 150, depending on the cases.
Results. The CMC of the detergents is the concentration starting from which they associate with one another to form micelles, in which, in aqueous solution, the hydrophobic portions are grouped together at the center and the hydrophilic regions are exposed to the solvent. […] A typical result obtained with a compound 3.7 provided with a C13 (3.7e) or C18 ([…]) aliphatic chain is illustrated in FIG. 4.

In data set [2] the target is T2, BmrA (Bacillus subtilis, UniProt O06967).
T2 construct: His tag; made in house; host or cells: E. coli C41(DE3)
T2 sequence (O06967 whole entry): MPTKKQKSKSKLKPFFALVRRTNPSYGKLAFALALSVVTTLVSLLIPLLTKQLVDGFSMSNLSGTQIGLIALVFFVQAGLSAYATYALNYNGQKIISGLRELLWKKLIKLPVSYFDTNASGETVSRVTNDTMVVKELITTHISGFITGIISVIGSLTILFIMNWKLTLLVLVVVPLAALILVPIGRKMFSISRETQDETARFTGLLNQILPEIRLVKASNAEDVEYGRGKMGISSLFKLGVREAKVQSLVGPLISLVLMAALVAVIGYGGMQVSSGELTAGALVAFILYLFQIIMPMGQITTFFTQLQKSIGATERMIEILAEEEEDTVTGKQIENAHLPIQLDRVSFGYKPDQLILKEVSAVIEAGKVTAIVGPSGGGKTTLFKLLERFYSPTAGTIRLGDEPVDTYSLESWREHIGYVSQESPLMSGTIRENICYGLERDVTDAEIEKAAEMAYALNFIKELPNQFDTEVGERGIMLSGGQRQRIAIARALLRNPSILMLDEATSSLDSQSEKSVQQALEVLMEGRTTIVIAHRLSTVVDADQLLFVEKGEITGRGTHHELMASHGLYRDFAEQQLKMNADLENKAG
Kind of data set: Extraction of BmrA from membranes (SDS-PAGE of supernatant). Set-up: species or system bacterial; overexpressed in E. coli C41DE3. The following applies: detergent 10 g/l unless indicated otherwise; 2 h at 4° C. As to the method:
as §1, §2, §3

Data set [3] concerns the target T2, BmrA. Description: ATPase activity of BmrA after addition of detergents. The data set is classed as biochemical, bacterial; produced in E. coli C41 DE3. The protocol: FIG. 7 depicts the effect of the detergents of the invention on the functionality of BmrA (ATPase activity, %). The membrane fraction enriched in BmrA (˜25%) diluted to 2 g/l has the compounds added to it at the concentrations (mM) indicated (panel A, from top to bottom: 3.7e 10.7 mM, 3.7e 8.6 mM, 3.7e 6.4 mM, 3.7e 4.3 mM, 3.7e 2.2 mM, 3.7e 1.1 mM, 3.7d 4 mM, 3.7d 3 mM, 3.7d 2 mM, 3.7d 1 mM, 3.7d 0.8 mM, 3.7d 0.6 mM, 3.7d 0.05 mM, 3.7d 0.03 mM, 3.7d 0.02 mM, 3.7c 13 mM, 3.7c 10.4 mM, 3.7c 10 mM, 3.7b 1.5 mM, 3.7b 0.7 mM, 3.7b 0.5 mM, 2.3gNa2 20.5 mM, 2.3gK2 19.3 mM, 2.3f 21.1 mM, 2.3e 22 mM, 2.3d 23.2 mM, 2.3a 3.2 mM, 1.5a 22 mM, DDM 20 mM, DDM 2 mM, DDM 10 mM, DOM 2 mM, DDM 1 mM, LMNG 10 mM, LMNG 1 mM, LMNG 0.1 mM, LMNG 0.01 mM, FA3 27 mM, FA3 9 mM, FA3 2 mM, FA3 1 mM, TX100 16 mM; panel B from top to bottom: compounds of the invention 5.3d 3.2 mM, 5.3c 3.3 mM, 5.3b 11.7 mM, 5.3b 2.9 mM, 5.3a 3 mM, 4.6c 14.6 mM, 4.6b 15.2 mM, 4.5c 18.6 mM, 4.5b 19.6 mM, 3.9a 8 mM, 3.9a 0.51 mM, 3.9a 0.31 mM, 3.9a 0.11 mM, 3.7l 12.01 mM, 3.7l 6.01 mM, 3.7l 3 mM, 3.7l 1 mM, 3.7k 10 mM, 3.7k 3 mM, 3.7j 3 mM, 3.7j 2 mM, 3.7j 1 mM, 3.7j 0.6 mM, 3.7j 0.03 mM, 3.7j 0.02 mM, 3.7j 1 mM, 3.7i 0.3 mM, 3.7h 3 mM, 3.7h 2 mM, 3.7h 1 mM, 3.7h 0.6 mM, 3.7h 0.58 mM, 3.7h 0.5 mM, 3.7h 0.35 mM, 3.7h 0.1 mM, 3.7h 0.5 mM, 3.7h 0.35 mM, 3.7h 0.1 mM, 3.7h 0.05 mM, 3.7h 0.03 mM, 3.7h 0.02 mM, 3.7g 12.5 mM, 3.7g 9 mM, 3.7g 7.5 mM, 3.7g 5 mM, 3.7g 3 mM, 3.7g 1 mM, 3.7f 3.2 mM, 3.7f 2 mM, 3.7f 1 mM, 3.7f 0.061 mM, 3.7f 0.031 mM, 3.7f 0.015 mM). After incubation for 2 h at 4° C., the ATPase activity is measured. The solutions are subsequently centrifuged for 1 h at 4° C., 100 000×g, and the supernatants deposited on 10% SDS-PAGE (cf. FIG. 8). The gray and black histograms correspond to the concentrations at which BmrA is partially (gray) or entirely (black) extracted, according to these SDS-PAGE. The ATPase activity is in % relative to that of the protein without compound, 0.7 μmol ATP hydrolyzed/min/mg of proteins.
The molecules of the invention which extract BmrA in the previous example were tested at different sub-solubilizing and solubilizing concentrations, to evaluate their impact on the native and functional state of the protein. The latter is monitored by the hydrolysis of ATP which is carried out by the protein during the transport cycle, coupled with translocation of the solute. As reported previously (Matar-Merheb, R. et al. ([11])), the ATPase activity of BmrA is a highly sensitive marker of the state of the protein, the latter being particularly sensitive to the detergents used during the extraction step, where said detergents replace the lipids on contact with the membrane protein.
Procedure. BmrA produced and enriched in the plasma membrane of E. coli C41 DE3 is prepared as described previously (Matar-Merheb, R. et al. ([11])). The membranes are diluted at 2 g/l in a 20 mM Tris-HCl buffer, pH 8.0, 100 mM NaCl, 15% glycerol, with protease inhibitors (Roche) added thereto at an amount of one tablet/100 ml. The mixture (T) is incubated for 2 h at 4° C. and the ATPase activity is measured using the coupled-enzyme system, separating off the vanadate-insensitive activity from the total activity, Centeno, F. et al. Expression of the sarcoplasmic reticulum Ca^2+-ATPase in yeast. FEBS Lett 354, 117-122 (1994) ([25])). The solutions are subsequently centrifuged for 1 h at 4° C. at 100 000×g in order to separate the extracted fraction (supernatant, S) from that which is not extracted (pellet). The supernatants are deposited on 10% SDS-PAGE and stained with Coomassie blue after migration (FIG. 8). DDM, LMNG (Chae, P. S. et al. ([6])), TritonX100 and FA3 (Lee, S. C. et al. (2013) ([9])) are tested as reference detergents. The DDM and LMNG originate from Anatrace, the Triton X100 originates from Sigma-Aldrich and the FA3 from Avanti-Polars.

Entries after “also recorded” stand apart in the source; their conditions may differ. Residues, ends and D or L forms follow the SMILES beside them. *: point of attachment. Palmitoyl = CCCCCCCCCCCCCCCC(=O)*; Myristoyl = CCCCCCCCCCCCCC(=O)*; Decanoyl = CCCCCCCCCC(=O)*

T1 sequence (P31224 whole entry): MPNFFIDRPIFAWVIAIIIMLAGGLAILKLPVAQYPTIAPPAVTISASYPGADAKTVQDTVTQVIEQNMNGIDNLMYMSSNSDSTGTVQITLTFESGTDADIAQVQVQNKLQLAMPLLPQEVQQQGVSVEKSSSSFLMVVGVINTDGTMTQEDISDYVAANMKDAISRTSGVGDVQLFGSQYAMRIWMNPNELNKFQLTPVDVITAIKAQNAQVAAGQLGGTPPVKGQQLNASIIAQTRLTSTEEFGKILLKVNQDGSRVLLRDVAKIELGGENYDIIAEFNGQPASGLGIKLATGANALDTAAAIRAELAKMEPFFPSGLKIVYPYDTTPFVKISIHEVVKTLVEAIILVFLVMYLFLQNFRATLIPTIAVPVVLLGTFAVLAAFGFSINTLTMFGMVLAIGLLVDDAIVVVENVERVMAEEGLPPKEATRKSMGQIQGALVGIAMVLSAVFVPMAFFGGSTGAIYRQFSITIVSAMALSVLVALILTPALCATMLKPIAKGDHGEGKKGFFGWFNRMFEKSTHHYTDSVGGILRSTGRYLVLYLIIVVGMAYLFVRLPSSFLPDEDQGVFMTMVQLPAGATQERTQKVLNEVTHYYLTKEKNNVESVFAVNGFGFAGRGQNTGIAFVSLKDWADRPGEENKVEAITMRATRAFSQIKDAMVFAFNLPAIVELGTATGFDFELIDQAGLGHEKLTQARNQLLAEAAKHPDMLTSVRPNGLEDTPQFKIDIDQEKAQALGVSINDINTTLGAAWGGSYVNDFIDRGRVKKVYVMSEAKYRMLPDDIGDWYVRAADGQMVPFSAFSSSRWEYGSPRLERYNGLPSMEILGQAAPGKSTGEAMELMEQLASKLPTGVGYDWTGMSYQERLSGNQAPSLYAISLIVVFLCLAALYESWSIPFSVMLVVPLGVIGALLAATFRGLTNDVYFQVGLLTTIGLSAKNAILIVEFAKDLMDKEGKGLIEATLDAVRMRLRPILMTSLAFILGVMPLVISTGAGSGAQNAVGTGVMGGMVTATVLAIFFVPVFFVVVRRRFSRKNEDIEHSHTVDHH

In the case of `CCCCCCCCCCCCCC(=O)NC(CC(=O)O)C(=O)NC(CCC(=O)O)C(=O)O` (stereo not drawn) [Compound 4.5c] (Myristoyl-Asp-Glu-OH; configuration not given here), on AcrB, the “extraction of AcrB” value was “extracting”. The “CMC” value in data set [1] was determined as 1.5 mM. Moreover, the “extraction of BmrA” value at BmrA [2] is “partially extracting”.
In the case of `CCCCCCCCCCCCCCCC(=O)NC(CC(=O)O)C(=O)NC(CCC(=O)O)C(=O)O` (stereo not drawn) [Compound 4.5d] (Palmitoyl-Asp-Glu-OH; configuration not given here), the “extraction of AcrB” value on AcrB is “extracting”. Besides, the “CMC” value in data set [1] was determined as 1 mM. Further, the “extraction of BmrA” value at BmrA [2] is listed as “extracting”.
For the compound `CCCCCCCCCC(=O)NC(CC(=O)NC(CCC(=O)O)C(=O)O)C(=O)NC(CCC(=O)O)C(=O)O` (stereo not drawn) [Compound 4.6a] (Decanoyl-Asp(Glu)-Glu-OH; configuration not given here), at AcrB, the “extraction of AcrB” value was “do not extract”. For the same compound, the “CMC” value in data set [1] amounted to 1 mM. On BmrA [2], the “extraction of BmrA” value is on record as “non-extracting”.
`CCCCCCCCCCCCCCCC(=O)NC(CC(=O)NC(CCC(=O)O)C(=O)O)C(=O)NC(CCC(=O)O)C(=O)O` (stereo not drawn) [Compound 4.6d] (Palmitoyl-Asp(Glu)-Glu-OH; configuration not given here): the “selective extraction AcrB versus BmrA” value at AcrB (comparison of extraction of AcrB and BmrA) is on record as “not extract, or only very slightly extract, AcrB, unlike BmrA”. The “extraction of AcrB” value at AcrB was “extracting; also recorded: partially extract”. Moreover, the “CMC” value in data set [1] is 1 mM. Besides, on BmrA [2], the “extraction of BmrA” value is given as “extracting”.
Take `CCCCCCCCCCC(CCCCCCCCCC)(CO[C@@H]1O[C@H](CO)[C@@H](O[C@H]2O[C@H](CO)[C@@H](O)[C@H](O)[C@H]2O)[C@H](O)[C@H]1O)CO[C@@H]1O[C@H](CO)[C@@H](O[C@H]2O[C@H](CO)[C@@H](O)[C@H](O)[C@H]2O)[C@H](O)[C@H]1O` [LMNG, lauryl maltose neopentyl glycol, reference compound]: on BmrA [3] (relative to protein without compound, at concentrations that solubilize/extract BmrA (LMNG 10 mM; DDM beyond 5 mM), 2 h at 4° C.), the “ATPase activity of BmrA” value is given as 25%. The “impact on the activity of BmrA” value at BmrA [3] (up to 1 mM) is reported as “relatively low impact”.

(Values after patent publication US11440932B2, “Surfactant compounds-clips for extraction and stabilization in solution of membrane proteins” (CENTRE NATIONAL DE LA RECHERCHE SCIENTIFIQUE, priority 2017, dated 2022).)
